Test systems include DU-145 prostate; MCF7 breast; MDA-MB-435; BT-549 breast.
Holding throughout (assay): growth of human tumour cells (NCI), 48 h

The structures appear in SMILES notation.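 Tested at 5 concentrations; 48 h exposure; 96-well plates; endpoints linearly interpolated, else capped at highest concentration. Here, GI50 denotes the concentration required for 50% inhibition of growth. TGI: total growth inhibition.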

With `CCCCCCCCSC1=CC(=O)c2nc3ccccc3c3ccnc1c23`, the GI50 with DU-145 prostate was greater than 100 µM; with MCF7 breast it was 20.2 µM; in the experiment on MDA-MB-435, 41.7 µM; with BT-549 breast, greater than 100 µM. In addition, the TGI with DU-145 prostate was greater than 100 µM; in the experiment on MCF7 breast, 57.4 µM; in the experiment on MDA-MB-435 it was greater than 100 µM; in the experiment with BT-549 breast, greater than 100 µM.
For `CSCCCN(CCCSC)CCCSC`, the TGI with DU-145 prostate, in the experiment with MCF7 breast, in the experiment on MDA-MB-435 and in the experiment on BT-549 breast was greater than 100 µM each time.
Regarding `O=C(O)c1cc(C(=O)O)cc(N2C(=O)c3ccccc3C2=O)c1`, the TGI with DU-145 prostate, in the experiment with MCF7 breast, in the experiment on MDA-MB-435 and in the experiment on BT-549 breast was greater than 100 µM each time.
In the case of `CCOc1ccccc1-n1c(CN2CCN(C(=O)COc3ccc(CNCCCCCCN4C5CCCC4CC(OC(=O)Nc4cc(C)ccc4OC)C5)cc3)CC2)nc2ccccc2c1=O` (centres undefined), the GI50 in the experiment with DU-145 prostate is 1.8 µM; with MCF7 breast it was 0.75 µM; with MDA-MB-435, 0.811 µM; in the experiment on BT-549 breast, 1.72 µM. Also, the TGI came to 3.49 µM with DU-145 prostate, 2.06 µM in the experiment on MCF7 breast, 2.12 µM with MDA-MB-435 and 3.26 µM in the experiment on BT-549 breast.
Regarding `Cc1cc(=O)n2[nH]c(-c3ccc(C(C)(C)C)cc3)cc2n1`, the GI50 in the experiment with DU-145 prostate is 11.4 µM; in the experiment on MCF7 breast, 7.43 µM; in the experiment with MDA-MB-435, 5.44 µM; in the experiment on BT-549 breast, 17.4 µM. In addition, the TGI with DU-145 prostate was 75.9 µM; in the experiment with MCF7 breast it was greater than 100 µM; in the experiment with MDA-MB-435, greater than 100 µM; in the experiment with BT-549 breast it was greater than 100 µM.
As to `O=[N+]([O-])c1cnc(Sc2ccncn2)s1`, the GI50 in the experiment on DU-145 prostate was 1.8 µM; with MCF7 breast, 1.65 µM; with MDA-MB-435, 2.95 µM; in the experiment on BT-549 breast, 4.84 µM. For the same molecule, the TGI in the experiment with DU-145 prostate turned out to be 3.22 µM; with MCF7 breast, 3.45 µM; in the experiment with MDA-MB-435, 8.76 µM; in the experiment with BT-549 breast it was 9.55 µM.
As to `CC(=O)[O][Hg][c]1c(N)c(C)cc(C)c1F`, the GI50 in the experiment on DU-145 prostate was 2.39 µM; in the experiment with MCF7 breast, 0.665 µM; with MDA-MB-435 it was 1.48 µM; in the experiment with BT-549 breast, 2.22 µM. Moreover, the TGI in the experiment on DU-145 prostate came to 7.14 µM; in the experiment with MCF7 breast, 2.99 µM; in the experiment with MDA-MB-435, 2.96 µM; in the experiment with BT-549 breast, 5.29 µM.
Take `COc1ccc(-c2cc(-c3ccc(Nc4nc(Nc5ccccc5)nc(Nc5ccc(Cl)cc5)n4)cc3)nc(N)c2C#N)cc1`: the GI50 is 2.41 µM in the experiment on DU-145 prostate, 0.941 µM in the experiment on MCF7 breast, 0.962 µM in the experiment on MDA-MB-435 and 0.822 µM in the experiment with BT-549 breast. Further, the TGI in the experiment on DU-145 prostate is greater than 50 µM; in the experiment with MCF7 breast, greater than 50 µM; in the experiment with MDA-MB-435 it was 2.16 µM; in the experiment with BT-549 breast it was 2.49 µM.
For the molecule `Cn1ccnc1C(=O)/C=C/c1ccc(CC(=O)Nc2ccc(Br)cc2)cc1`, the GI50 with DU-145 prostate was 3.93 µM; with MCF7 breast, 1.84 µM; in the experiment on MDA-MB-435 it was 4.37 µM; in the experiment with BT-549 breast it was 2.93 µM. Moreover, the TGI in the experiment on DU-145 prostate is 12.2 µM; with MCF7 breast, greater than 16.7 µM; in the experiment on MDA-MB-435, 14.8 µM; in the experiment on BT-549 breast, 6.43 µM.
In the case of `COc1cc(/C=C/c2cc(/C=C/c3ccc(O)c(OC)c3)n(C(=O)Nc3ccc(F)cc3)n2)ccc1O`, the GI50 in the experiment with DU-145 prostate is 1.53 µM; with MCF7 breast, 0.402 µM; in the experiment on MDA-MB-435, 0.214 µM; in the experiment on BT-549 breast, 1.18 µM. The TGI in the experiment on DU-145 prostate is 11.4 µM; in the experiment on MCF7 breast, 7.66 µM; in the experiment with MDA-MB-435 it was 0.561 µM; in the experiment on BT-549 breast, greater than 19.7 µM.
In the case of `CNC(=O)c1cc(Oc2ccc3nc(NC(=O)Nc4ccc(Cl)c(C(F)(F)F)c4)sc3c2)ccn1`, in the experiment with BT-549 breast, the GI50 was 2.64 µM and the TGI worked out at 9.73 µM.
As to `Cc1cc(=O)[nH]c2cc3oc4ccccc4c3cc12`, the TGI with DU-145 prostate, in the experiment with MCF7 breast, in the experiment on MDA-MB-435 and in the experiment on BT-549 breast was greater than 100 µM in each case.
As for `O=C(CCl)N1c2ccccc2Oc2ccc3ccccc3c21`, the GI50 in the experiment on DU-145 prostate was 1.17 µM; in the experiment with MDA-MB-435, 0.577 µM; in the experiment with BT-549 breast it was 1.79 µM. Moreover, the results for the TGI with DU-145 prostate, in the experiment on MDA-MB-435 and in the experiment on BT-549 breast were 2.53 µM, 1.88 µM and 3.56 µM, respectively.
In the case of `CCCCCCCC(=O)SCC/C=C/[C@@H]1CC(=O)NCc2cccc(n2)C2=N[C@@](C)(CS2)C(=O)N[C@@H](C(C)C)C(=O)N1`, the GI50 in the experiment with DU-145 prostate is 0.3 µM; in the experiment with MCF7 breast, 0.623 µM; with MDA-MB-435 it was 0.739 µM; in the experiment with BT-549 breast it was 5.04 µM. Further, the TGI with DU-145 prostate, with MCF7 breast, with MDA-MB-435 and with BT-549 breast was greater than 33.3 µM each time.
With `COc1cc2nc(-c3ccc(C(F)(F)F)cc3)cc(OCCCN3CCC(O)CC3)c2cc1OC`, the GI50 is 4.96 µM in the experiment on DU-145 prostate, 2.57 µM in the experiment on MCF7 breast, 2.76 µM in the experiment with MDA-MB-435 and 6.59 µM in the experiment on BT-549 breast. Besides, the TGI came to 20.4 µM with DU-145 prostate, 18.2 µM with MCF7 breast, 9.31 µM in the experiment with MDA-MB-435 and 22.1 µM in the experiment on BT-549 breast.
Consider `COc1ccc(C2=CSc3cc(Cl)c(C)cc3S(=O)(=O)N2C(C)=O)cc1`, for which the GI50 was 38.4 µM with DU-145 prostate, 46.2 µM with MCF7 breast, 28.6 µM with MDA-MB-435 and 29.9 µM in the experiment on BT-549 breast. Further, the TGI is greater than 100 µM with DU-145 prostate, greater than 100 µM in the experiment with MCF7 breast, 87.8 µM in the experiment with MDA-MB-435 and greater than 100 µM in the experiment on BT-549 breast.
As to `Cc1cnc(NC(=O)C(Cc2ccccc2)NC(=O)c2ccccc2)s1` (centres undefined), the GI50 was 21.4 µM in the experiment on DU-145 prostate, 1.55 µM with MCF7 breast, 3.02 µM in the experiment with MDA-MB-435 and 29.1 µM in the experiment with BT-549 breast. Further, the TGI in the experiment on DU-145 prostate is 47 µM; with MCF7 breast, 5.12 µM; in the experiment on MDA-MB-435 it was 15.6 µM; in the experiment on BT-549 breast it was greater than 100 µM.
Turning to `COc1ccc2c(c1)C(=O)/C(=C/c1ccc(OCC(=O)Nc3nccs3)cc1)O2`, the GI50 was 0.504 µM in the experiment on DU-145 prostate, 5.75 µM in the experiment on MCF7 breast, 10.7 µM with MDA-MB-435 and 3.86 µM in the experiment with BT-549 breast. Further, the TGI is 5.73 µM in the experiment with DU-145 prostate, 18 µM with MCF7 breast, 46.8 µM in the experiment on MDA-MB-435 and 15.3 µM in the experiment with BT-549 breast.

Values taken from PubChem BioAssay (NCI).
